We go through twelve compounds from PubChem BioAssay (NCI).

“And” between values parts separate entries of the source, which are not always exact repeats. Equal entries are not always repeated.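 Protocol summary: plate cells (96-well), add compound at 5 concentrations, incubate 48 h, interpolate endpoints linearly. The concentration for 50% growth inhibition is given as GI50. The concentration for full growth arrest is given as TGI.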

Test systems include HCT-116 colon; MALME-3M melanoma; MDA-MB-435; RPMI-8226 leukemia; SF-539 CNS; SK-MEL-2 melanoma; SNB-75 CNS; T-47D breast; UACC-62 melanoma; DU-145 prostate.
Experiment in all cases: DTP human tumour cell line panel, 48 h

With `O=C(c1ccccc1)C1OC1c1ccc([N+](=O)[O-])cc1` (stereo unspecified), the GI50 in the assay with HCT-116 colon is 3.17 µM; in the assay with MALME-3M melanoma, 6.22 µM; with MDA-MB-435, 2.95 µM; with RPMI-8226 leukemia, 8.29 µM; in the assay on SF-539 CNS, 10.2 µM; with SK-MEL-2 melanoma it was 5.88 µM. Also, the figures for the GI50 in the assay on SNB-75 CNS, in the assay with T-47D breast and with UACC-62 melanoma were 2.92 µM, 3.9 µM and 11.3 µM, respectively. Also, the TGI in the assay with HCT-116 colon was 12.6 µM; in the assay on MALME-3M melanoma, more than 100 µM; in the assay with MDA-MB-435 it was more than 100 µM; in the assay with RPMI-8226 leukemia, more than 100 µM; in the assay on SF-539 CNS, 76.8 µM; in the assay on SK-MEL-2 melanoma it was 34.9 µM. Moreover, the TGI with SNB-75 CNS stood at 72.7 µM; with T-47D breast, 71.1 µM; with UACC-62 melanoma, 42.5 µM.
With `C/C1=C/C(=O)O[C@@H]2C[C@@H](CC[C@H](C)/C=C\C=C\CC1)O[C@@](O)([C@@H]1CSC(=O)N1)C2`, the TGI in the assay with DU-145 prostate is more than 10 µM; in the assay with HCT-116 colon it was more than 10 µM; with MALME-3M melanoma, more than 10 µM; in the assay on MDA-MB-435 it was more than 2.24 µM; in the assay with RPMI-8226 leukemia, more than 10 µM; in the assay on SF-539 CNS, 0.991 µM. The TGI with SK-MEL-2 melanoma was more than 10 µM; with SNB-75 CNS, 0.332 µM; in the assay on UACC-62 melanoma it was more than 10 µM.
With `O=c1c(Br)cc2nc3ccccc3sc-2c1Br`, the TGI with HCT-116 colon, with MALME-3M melanoma, in the assay on RPMI-8226 leukemia, in the assay with SF-539 CNS, in the assay with SK-MEL-2 melanoma and in the assay on SNB-75 CNS was more than 100 µM each time. The compound further returned a TGI in the assay on UACC-62 melanoma of 79.8 µM.
Consider `CC(C)(C)c1cc(-n2c(-c3ccc(Cl)cc3)nc3cc(C(=O)Nc4ccc(Cl)cc4)ccc32)n[nH]1`, for which the GI50 is 8.5 µM in the assay on DU-145 prostate; 3.84 µM in the assay with HCT-116 colon; 5.29 µM in the assay with MALME-3M melanoma; 28 µM with SF-539 CNS; 2.89 µM in the assay on SK-MEL-2 melanoma; 7.08 µM in the assay on SNB-75 CNS. In addition, the values for the GI50 with T-47D breast and in the assay with UACC-62 melanoma were 3.72 µM and 2.75 µM, respectively. Besides, the TGI is more than 100 µM in the assay on DU-145 prostate; more than 100 µM in the assay with HCT-116 colon; more than 100 µM in the assay with MALME-3M melanoma; more than 100 µM in the assay with SF-539 CNS; 9.58 µM in the assay on SK-MEL-2 melanoma; 26.4 µM in the assay on SNB-75 CNS. The TGI with T-47D breast and in the assay with UACC-62 melanoma was more than 100 µM in each case.
With `C[n+]1c2cc(N)ccc2cc2ccc(N)cc21`, the GI50 is 1.36 µM [middle of 4 runs] in the assay on DU-145 prostate; 622 nM [middle of 4 runs] with HCT-116 colon; 763 nM [middle of 4 runs] in the assay with MALME-3M melanoma; 1.62 µM [middle of 4 runs] in the assay with MDA-MB-435; 1.89 µM [middle of 4 runs] in the assay with RPMI-8226 leukemia; 1.33 µM [middle of 4 runs] in the assay on SF-539 CNS. Besides, the GI50 in the assay with SK-MEL-2 melanoma is 1.47 µM [middle of 4 runs]; in the assay with SNB-75 CNS, 1.55 µM [middle of 4 runs]; with UACC-62 melanoma it was 1.26 µM [middle of 4 runs]. In addition, the TGI in the assay with DU-145 prostate was 5.57 µM [middle of 4 runs]; with HCT-116 colon, 5.55 µM and 11.1 µM and 5.51 µM; in the assay with MALME-3M melanoma, 2.86 µM [middle of 4 runs]; in the assay on SF-539 CNS, 3.69 µM [middle of 4 runs]; in the assay with SK-MEL-2 melanoma it was 5 µM [middle of 4 runs]; with SNB-75 CNS, 4.05 µM [middle of 4 runs]. Besides, in the assay with UACC-62 melanoma, the TGI is 2.86 µM [middle of 4 runs].
As for `CC(=O)OC(C)(C)/C(C)=C/C(=O)O[C@H]1C(=O)O[C@@H]2C[C@H]3[C@H](C)C(=O)C(O[C@@H]4O[C@H](CO)[C@@H](O)[C@H](O)[C@H]4O)=C[C@]3(C)[C@H]3[C@@H](O)[C@H](O)[C@@]4(C(=O)O)OC[C@]32[C@@H]14`, the GI50 in the assay with DU-145 prostate was more than 100 µM; in the assay on HCT-116 colon it was 37.5 µM; with MALME-3M melanoma, 55.9 µM; with MDA-MB-435, more than 100 µM; in the assay with SF-539 CNS, 55.9 µM; in the assay with SK-MEL-2 melanoma it was more than 100 µM. Further, the GI50 with SNB-75 CNS, in the assay on T-47D breast and in the assay on UACC-62 melanoma was more than 100 µM throughout. The TGI with DU-145 prostate, in the assay on HCT-116 colon, in the assay with MALME-3M melanoma, in the assay on MDA-MB-435, with SF-539 CNS and in the assay on SK-MEL-2 melanoma was more than 100 µM each time. In addition, the TGI in the assay with SNB-75 CNS, with T-47D breast and in the assay with UACC-62 melanoma was more than 100 µM throughout.
As to `Cc1ccc(NC(=O)CC2Sc3ccccc3NC2=O)c(C)c1` (stereo unspecified), the TGI in the assay with HCT-116 colon was found to be 22 µM; with MALME-3M melanoma, 47.7 µM; in the assay on RPMI-8226 leukemia, 43.9 µM; with SF-539 CNS, 29.6 µM; in the assay with SK-MEL-2 melanoma, 18.2 µM; in the assay on SNB-75 CNS, 19.2 µM. The compound also displayed a concentration for total growth inhibition (TGI) in the assay on UACC-62 melanoma of 48.9 µM.
For `COC(=O)C(C(=O)C(=O)Nc1ccc([N+](=O)[O-])cc1[N+](=O)[O-])c1nc2ccc(Cl)cc2[nH]c1=O` (stereo unspecified), the TGI with HCT-116 colon, in the assay with MALME-3M melanoma, with RPMI-8226 leukemia, in the assay with SF-539 CNS, with SK-MEL-2 melanoma and with SNB-75 CNS was more than 100 µM each time. In the assay with UACC-62 melanoma, this compound had a total growth inhibition concentration (TGI) of more than 100 µM.
For the compound `O=C(Nc1ccc(Cl)c(Cl)c1)Nc1c(Oc2ccc(Cl)c(Cl)c2)ccc(Cl)c1S(=O)(=O)O`, the GI50 in the assay with DU-145 prostate was 3.22 µM; in the assay on HCT-116 colon it was 1.32 µM; in the assay with RPMI-8226 leukemia it was 2.91 µM; in the assay with SNB-75 CNS it was 1.51 µM; in the assay with UACC-62 melanoma, 1.97 µM. Further, the TGI in the assay with DU-145 prostate is more than 100 µM; in the assay on HCT-116 colon it was more than 100 µM; with RPMI-8226 leukemia it was more than 100 µM; with SNB-75 CNS it was 4.53 µM; in the assay on UACC-62 melanoma, more than 100 µM.
For `Cc1ccc(S(=O)(=O)NC2(C=O)CCCC3CCCCC32)cc1` (stereo unspecified), the total growth inhibition concentration (TGI) with HCT-116 colon, in the assay on MALME-3M melanoma, in the assay on RPMI-8226 leukemia, in the assay on SF-539 CNS, in the assay on SK-MEL-2 melanoma and in the assay on SNB-75 CNS was more than 100 µM throughout. This compound came in with a TGI with UACC-62 melanoma of more than 100 µM.
For the compound `CCC[CH2][Sn]1([CH2]CCC)[O]CC(CN(C)Cc2ccccc2)[O]1` (stereo unspecified), the GI50 with HCT-116 colon is 15.7 µM; in the assay on MALME-3M melanoma, 2.72 µM; in the assay on RPMI-8226 leukemia, 2.75 µM; in the assay on SF-539 CNS it was 7.2 µM; in the assay on SK-MEL-2 melanoma, 4.27 µM; in the assay with SNB-75 CNS, 3.47 µM. The GI50 in the assay on UACC-62 melanoma is 4.31 µM. Further, the TGI amounted to 29.2 µM with HCT-116 colon; 9.21 µM in the assay on MALME-3M melanoma; 7.79 µM in the assay on RPMI-8226 leukemia; 20.6 µM in the assay with SF-539 CNS; 15.9 µM with SK-MEL-2 melanoma; 16.2 µM in the assay on SNB-75 CNS. Moreover, the TGI in the assay with UACC-62 melanoma was 16.1 µM.
With `O=c1ncc(F)cn1C1OC(CO)C(O)C1O` (stereo unspecified), the TGI in the assay on HCT-116 colon is more than 100 µM; in the assay with MALME-3M melanoma, more than 51.5 µM; in the assay on RPMI-8226 leukemia it was more than 100 µM; with SF-539 CNS it was more than 88 µM; in the assay with SK-MEL-2 melanoma, more than 46.5 µM; in the assay on SNB-75 CNS it was more than 65.1 µM. In addition, the TGI in the assay with UACC-62 melanoma was more than 64.1 µM.
